Reference: patent EP4813978A1, “COMPOUND TARGETING UBIQUITIN KRAS PROTEIN DEGRADATION AGENT, AND USE THEREOF” (Betta Pharmaceuticals Co., Ltd, priority 2023, dated 2025)

Assays:
Type in all cases: cell-based
AGS = test: Cell proliferation assay (Cell-titer Glo), AGS; conditions: KRAS G12D, 96 h
Method: (§1) Cells with different mutations were seeded in low-attachment transparent 96-well plates at the seeding densities shown in Table 1, and incubated overnight in a cell culture incubator. After the cells adhered, the test compounds were added to the 96-well plates at final concentrations of 20000 nM, 5000 nM, 1250 nM, 312.5 nM, 78.13 nM, 19.53 nM, 4.88 nM, 1.22 nM, 0.31 nM, 0 nM (the final concentration of DMSO was 0.25% in all wells). After culturing at 37°C for 96 h, 50 µL of Cell-titer Glo working solution was added to each well. The plates were shaken to mix and then incubated at room temperature for 10 min. Luminescence values were read on a multimode microplate reader, and the luminescence data were converted into percentage inhibition. The percentage of cell proliferation inhibition was calculated according to the following formula: Percentage inhibition = (1−(TestValue−Blank)/(MaxValue−Blank)) × 100% [formula]
(§2) ("Max value" is from the 0.25% DMSO control wells, "Blank" is from the blank medium control wells, and "Test Value" is from the compound-treated wells).
(§3) Curve fitting was performed using GraphPad Prism software to obtain IC50 (nM) values.

SW620 = test: Cell proliferation assay (Cell-titer Glo), SW620; conditions: Homo sapiens, SW-620, SW620, KRAS G12V, 96 h
Method: as §1, §2, §3

H358 = test: Cell proliferation assay (Cell-titer Glo), H358; conditions: Homo sapiens, NCI-H358, H358, KRAS G12C, 96 h
Method: as §1, §2, §3

Mia-Paca2 = test: Cell proliferation assay (Cell-titer Glo), Mia-Paca2; conditions: 96 h
Method: as §1, §2, §3

Compound	IC50 (AGS; Homo sapiens)	IC50 (SW620)	IC50 (H358)	IC50 (Mia-Paca2; Homo sapiens, MIA PaCa-2, Mia-Paca2, KRAS G12C)	IC50 (AGS)	IC50 (Mia-Paca2; Mia-Paca2, KRAS G12C)
CCc1c(F)ccc2cc(O)cc(-c3ncc4c(N5CCCOCC5)nc(OCC5(CN6CCC(Oc7cnc(-c8cn([C@H](C(=O)N9C[C@H](O)C[C@H]9C(=O)N[C@@H](C)c9ccc(-c%10scnc%10C)cc9)C(C)C)nn8)cn7)CC6)CC5)nc4c3F)c12 [Compound 5, (2S,4R)-1-((S)-2-(4-(5-((1-((1-(((7-(8-ethyl-7-fluoro-3-hydroxynaphthalen-1-yl)-8-fluoro-4-(1,4-oxazepan-4-yl)pyrido[4,3-d]pyrimidin-2-yl)oxy)methyl)cyclopropyl)methyl)piperidin-4-yl)oxy)pyrazin-2-yl)-1H-1,2,3-triazol-1-yl)-3-methylbutanoyl)-4-hydroxy-N-((S)-1-(4-(4-methylthiazol-5-yl)phenyl)ethyl)pyrrolidine-2-carboxamide]	20 nM	34 nM	55 nM	–	–	–
CCc1c(F)ccc2cc(O)cc(-c3ncc4c(N5CCCS(=O)(=O)C5)nc(OCC5(CN6CCC(Oc7cnc(-c8cn([C@H](C(=O)N9C[C@H](O)C[C@H]9C(=O)N[C@@H](C)c9ccc(-c%10scnc%10C)cc9)C(C)C)nn8)cn7)CC6)CC5)nc4c3F)c12 [Compound 7, (2S,4R)-1-((S)-2-(4-(5-((1-((1-(((4-(1,1-dioxido-1,3-thiazinan-3-yl)-7-(8-ethyl-7-fluoro-3-hydroxynaphthalen-1-yl)-8-fluoropyrido[4,3-d]pyrimidin-2-yl)oxy)methyl)cyclopropyl)methyl)piperidin-4-yl)oxy)pyrazin-2-yl)-1H-1,2,3-triazol-1-yl)-3-methylbutanoyl)-4-hydroxy-N-((S)-1-(4-(4-methylthiazol-5-yl)phenyl)ethyl)pyrrolidine-2-carboxamide]	6.2 nM	31 nM	–	–	–	–
CCc1c(F)ccc2cc(O)cc(-c3ncc4c(N5CCC[C@](O)(CC#N)C5)nc(OCC5(CN6CCC(Oc7cnc(-c8cn([C@H](C(=O)N9C[C@H](O)C[C@H]9C(=O)N[C@@H](C)c9ccc(-c%10scnc%10C)cc9)C(C)C)nn8)cn7)CC6)CC5)nc4c3F)c12 [Compound 57, (2S,4R)-1-((S)-2-(4-(5-((1-((1-(((4-((S)-3-(cyanomethyl)-3-hydroxypiperidin-1-yl)-7-(8-ethyl-7-fluoro-3-hydroxynaphthalen-1-yl)-8-fluoropyrido[4,3-d]pyrimidin-2-yl)oxy)methyl)cyclopropyl)methyl)piperidin-4-yl)oxy)pyrazin-2-yl)-1H-1,2,3-triazol-1-yl)-3-methylbutanoyl)-4-hydroxy-N-((S)-1-(4-(4-methylthiazol-5-yl)phenyl)ethyl)pyrrolidine-2-carboxamide]	5 nM	18 nM	20 nM	–	–	–
CCc1c(F)ccc2cc(O)cc(-c3ncc4c(N5CCCC6(CCO6)C5)nc(OCC5(CN6CCN(c7ccc(-c8cn([C@H](C(=O)N9C[C@H](O)C[C@H]9C(=O)N[C@@H](C)c9ccc(-c%10scnc%10C)cc9)C(C)C)nn8)cn7)CC6)CC5)nc4c3F)c12 (stereo partly drawn) [Compound 111, (2S,4R)-1-((2S)-2-(4-(6-(4-((1-(((7-(8-ethyl-7-fluoro-3-hydroxynaphthalen-1-yl)-8-fluoro-4-(1-oxa-6-azaspiro[3.5]nonan-6-yl)pyrido[4,3-d]pyrimidin-2-yl)oxy)methyl)cyclopropyl)methyl)piperazin-1-yl)pyridin-3-yl)-1H-1,2,3-triazol-1-yl)-3-methylbutanoyl)-4-hydroxy-N-((S)-1-(4-(4-methylthiazol-5-yl)phenyl)ethyl)pyrrolidine-2-carboxamide]	30 nM	43 nM	56 nM	–	–	–
CCc1c(F)ccc2cc(O)cc(-c3ncc4c(N5CCCCC(=O)C5)nc(OCC5(CN6CCC(Oc7cnc(-c8cn([C@H](C(=O)N9C[C@H](O)C[C@H]9C(=O)N[C@@H](C)c9ccc(-c%10scnc%10C)cc9)C(C)C)nn8)cn7)CC6)CC5)nc4c3F)c12 [Compound 113, (2S,4R)-1-((S)-2-(4-(5-((1-((1-(((7-(8-ethyl-7-fluoro-3-hydroxynaphthalen-1-yl)-8-fluoro-4-(3-oxoazepan-1-yl)pyrido[4,3-d]pyrimidin-2-yl)oxy)methyl)cyclopropyl)methyl)piperidin-4-yl)oxy)pyrazin-2-yl)-1H-1,2,3-triazol-1-yl)-3-methylbutanoyl)-4-hydroxy-N-((S)-1-(4-(4-methylthiazol-5-yl)phenyl)ethyl)pyrrolidine-2-carboxamide]	80 nM	325 nM	–	–	–	–
CCc1c(F)ccc2cc(O)cc(-c3ncc4c(N5CCOC[C@@](C)(O)C5)nc(OCC5(CN6CCC(Oc7cnc(-c8cn([C@H](C(=O)N9C[C@H](O)C[C@H]9C(=O)N[C@@H](C)c9ccc(-c%10scnc%10C)cc9)C(C)C)nn8)cn7)CC6)CC5)nc4c3F)c12 [Compound 114, (2S,4R)-1-((S)-2-(4-(5-((1-((1-(((7-(8-ethyl-7-fluoro-3-hydroxynaphthalen-1-yl)-8-fluoro-4-((S)-6-hydroxy-6-methyl-1,4-oxazepan-4-yl)pyrido[4,3-d]pyrimidin-2-yl)oxy)methyl)cyclopropyl)methyl)piperidin-4-yl)oxy)pyrazin-2-yl)-1H-1,2,3-triazol-1-yl)-3-methylbutanoyl)-4-hydroxy-N-((S )-1-(4-(4-methylthiazol-5-yl)phenyl)ethyl)pyrrolidine-2-carboxamide]	2.7 nM	10 nM	–	–	–	–
CCc1c(F)ccc2cc(O)cc(-c3ncc4c(N5CCOC[C@@](C)(O)C5)nc(OCC5(CN6CCC(Oc7cnc(-c8cn([C@H](C(=O)N9C[C@H](O)C[C@H]9C(=O)N[C@@H](CN(C)C)c9ccc(-c%10scnc%10C)cc9)C(C)C)nn8)cn7)CC6)CC5)nc4c3F)c12 [Compound 131, (2S,4R)-N-((R)-2-(dimethylamino)-1-(4-(4-methylthiazol-5-yl)phenyl)ethyl)-1-((S)-2-(4-(5-((1-((1-(((7-(8-ethyl-7-fluoro-3-hydroxynaphthalen-1-yl)-8-fluoro-4-((S)-6-hydroxy-6-methyl-1,4-oxazepan-4-yl)pyrido[4,3-d]pyrimidin-2-yl)oxy)methyl)cyclopropyl)methyl)piperidin-4-yl)oxy)pyrazin-2-yl)-1H-1,2,3-triazol-1-yl)-3-methylbutanoyl)-4-hydroxypyrrolidine-2-carboxamide]	4.4 nM	15 nM	8.4 nM	5.3 nM	–	–
(2S,4R)-1-((2S)-2-(4-(5-((1-((1-(((7-(8-ethyl-7-fluoro-3-hydroxynaphthalen-1-yl)-8-fluoro-4-(3-h ydroxy-3-methylazepan-1-yl)pyrido[4,3-d]pyrimidin-2-yl)oxy)methyl)cyclopropyl)methyl)piperi din-4-yl)oxy)pyrazin-2-yl)-1H-1,2,3-triazol-1-yl)-3-methylbutanoyl)-4-hydroxy-N-((S)-1-(4-(4-methylthiazol-5-yl)phenyl)ethyl)pyrrolidine-2-carboxamide [Compound 134]	–	–	–	–	34 nM	67 nM
